Results as given in ChEMBL document CHEMBL3286293, “Optimization of GPR40 Agonists for Type 2 Diabetes” (ACS Med Chem Lett, 2014).
Activity calls are given as the source filed them. The calls are words filed in the database; no cut-off is given here.

How the values were obtained:
[1] = Volume of distribution at steady state in rat; assay type: ADME, organism-based; details: in vivo, read-out: Vdss
[2] = Mean residence time in rat; assay type: ADME, organism-based; details: in vivo
[3] = target: T1, Free fatty acid receptor 1 (Homo sapiens, UniProt O14842); test: Agonist activity at human GPR40 expressed in CHO cells by aequorin assay; assay type: cell-based
T1 sequence (O14842 whole entry): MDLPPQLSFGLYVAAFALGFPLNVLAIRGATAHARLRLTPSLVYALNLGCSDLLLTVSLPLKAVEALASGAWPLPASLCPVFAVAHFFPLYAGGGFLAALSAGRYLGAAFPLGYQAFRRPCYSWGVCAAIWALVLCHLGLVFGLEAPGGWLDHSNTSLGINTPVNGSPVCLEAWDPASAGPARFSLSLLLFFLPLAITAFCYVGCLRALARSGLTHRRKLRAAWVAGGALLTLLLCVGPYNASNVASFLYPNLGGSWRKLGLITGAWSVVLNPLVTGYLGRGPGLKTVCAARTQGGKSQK

[4] = Oral bioavailability in rat at 2 mg/kg; assay type: ADME, organism-based; details: in vivo
[5] = target: T1, Free fatty acid receptor 1; test: Agonist activity at human GPR40 expressed in mouse A9 cells by inositol phosphate accumulation assay; assay type: functional, cell-based
[6] = Inhibition of CYP450 (unknown origin); assay type: ADME; details: human
[7] = test system: Plasma; test: […] in mouse plasma at 1 mg/kg, po; assay type: ADME, organism-based; design: dose 1 mg/kg, route oral; details: in vivo
[8] = Oral bioavailability in dog at 2 mg/kg; assay type: ADME, organism-based, Canis lupus familiaris; details: in vivo
[9] = Plasma concentration in mouse at 1 mg/kg, po measured for 4 hrs; assay type: ADME, organism-based; design: dose 1 mg/kg, route oral
[10] = test system: Islets of langerhans; test: Induction of insulin secretion in human GPR40 knock-in mouse pancreatic islets
[11] = Oral bioavailability in cynomolgus monkey at 2 mg/kg; assay type: ADME, organism-based, Macaca fascicularis; details: in vivo
[12] = Half life in rat; assay type: ADME, organism-based; details: in vivo
[13] = Half life in dog; assay type: ADME, organism-based, Canis lupus familiaris; details: in vivo
[14] = Ratio of drug level in brain to plasma in rat at 5 mg/kg, po after 3 hrs; assay type: ADME, organism-based; design: dose 5 mg/kg, route oral; details: brain and plasma, read-out: BPR
[15] = target: Voltage-gated inwardly rectifying potassium channel KCNH2 (Homo sapiens, UniProt Q12809); test: Inhibition of human ERG
Voltage-gated inwardly rectifying potassium channel KCNH2, sequence (Q12809 whole entry): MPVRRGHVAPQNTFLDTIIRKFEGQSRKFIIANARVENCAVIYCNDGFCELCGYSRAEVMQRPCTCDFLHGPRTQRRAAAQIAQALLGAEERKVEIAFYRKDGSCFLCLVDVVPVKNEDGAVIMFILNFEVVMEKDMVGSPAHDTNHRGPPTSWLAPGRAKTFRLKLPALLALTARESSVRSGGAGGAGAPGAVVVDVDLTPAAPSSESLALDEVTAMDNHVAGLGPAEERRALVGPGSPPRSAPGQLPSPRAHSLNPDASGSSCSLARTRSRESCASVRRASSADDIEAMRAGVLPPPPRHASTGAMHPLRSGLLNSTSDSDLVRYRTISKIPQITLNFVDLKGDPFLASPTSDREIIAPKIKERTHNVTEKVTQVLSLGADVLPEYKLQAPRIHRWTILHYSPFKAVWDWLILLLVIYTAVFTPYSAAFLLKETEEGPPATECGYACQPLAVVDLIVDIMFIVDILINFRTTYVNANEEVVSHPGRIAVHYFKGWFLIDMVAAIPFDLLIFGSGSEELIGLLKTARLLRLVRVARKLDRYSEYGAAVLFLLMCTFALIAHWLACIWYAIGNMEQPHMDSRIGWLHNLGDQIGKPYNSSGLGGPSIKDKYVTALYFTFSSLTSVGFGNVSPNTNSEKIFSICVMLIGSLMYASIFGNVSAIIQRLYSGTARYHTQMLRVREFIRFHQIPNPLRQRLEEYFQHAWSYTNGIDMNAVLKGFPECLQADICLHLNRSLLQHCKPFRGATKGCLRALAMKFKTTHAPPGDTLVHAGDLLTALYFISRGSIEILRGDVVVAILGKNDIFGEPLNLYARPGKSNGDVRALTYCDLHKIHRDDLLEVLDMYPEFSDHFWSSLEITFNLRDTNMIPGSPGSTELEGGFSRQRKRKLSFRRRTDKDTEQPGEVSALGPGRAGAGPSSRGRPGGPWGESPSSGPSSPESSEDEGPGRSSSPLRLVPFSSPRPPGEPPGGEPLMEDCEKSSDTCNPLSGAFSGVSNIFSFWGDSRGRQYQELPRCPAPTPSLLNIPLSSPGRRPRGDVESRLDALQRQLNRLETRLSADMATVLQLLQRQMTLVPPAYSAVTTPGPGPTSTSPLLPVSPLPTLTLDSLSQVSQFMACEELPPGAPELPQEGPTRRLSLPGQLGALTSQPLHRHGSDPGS

[16] = Volume of distribution at steady state in cynomolgus monkey; assay type: ADME, organism-based, Macaca fascicularis; details: in vivo, read-out: Vdss
[17] = test system: Mus musculus; test: Antidiabetic activity in human GPR40 knock-in mouse assessed as reduction in blood glucose level at 10 mg/kg, po administered via gavage 1 hr before glucose challenge by oral glucose tolerance test; assay type: functional, organism-based; design: dose 10 mg/kg
[18] = test system: Mus musculus; test: Antidiabetic activity in human GPR40 knock-in mouse assessed as reduction in glucose AUC at 10 mg/kg, po administered via gavage 1 hr before glucose challenge by oral glucose tolerance test; assay type: functional
[19] = Induction of CYP450 (unknown origin); assay type: ADME; details: human
[20] = Half life in cynomolgus monkey; assay type: ADME, organism-based, Macaca fascicularis; details: in vivo
[21] = Volume of distribution at steady state in dog; assay type: ADME, organism-based, Canis lupus familiaris; details: in vivo, read-out: Vdss
[22] = Clearance in rat at 0.5 mg/kg, iv; assay type: ADME, organism-based; design: dose 0.5 mg/kg, route intravenous; details: in vivo

Row | Vd [1] [L/kg] | MRT [2] [h] | EC50 [3] [µM] | bioavailability [4] [%] | EC50 [5] [µM] | SMILES | further results
1 | 3.2 | 0.74 | 0.041 | 6.7 | 0.0038 | Cc1nc(-c2ccc(C(F)(F)F)cc2)sc1COc1ccc([C@H](CC(=O)O)c2nnnn2C)cc1 | –
2 | – | – | 0.036 | – | – | CC#C[C@@H](CC(=O)O)c1ccc(OCc2cccc(-c3ccc(Cl)cc3C)c2)cc1 | –
3 | – | – | 0.057 | – | 0.009 | Cc1nc(-c2ccc(C(F)(F)F)cc2)sc1COc1ccc([C@H](CC(=O)O)c2cnco2)cc1 | –
4 | 0.73 | 2.4 | 0.033 | 48 | 0.0076 | Cc1cc(Cl)ccc1-c1cccc(COc2ccc([C@H](CC(=O)O)c3nccn3C)cc2)c1 | clearance [22]: 0.31 L/h/kg
5 | 0.58 | 10 | – | 84 | – | CC#C[C@@H](CC(=O)O)c1ccc(OCc2cccc(-c3ccc(C(F)(F)F)cc3)c2)cc1 | –
6 | 0.64 | 3.7 | 0.073 | – | 0.016 | Cc1nc(-c2ccc(C(F)(F)F)cc2)sc1COc1ccc([C@H](CC(=O)O)c2nccn2C)cc1 | –

More lines, now with the values behind:

Row | SMILES | Vd [1] [L/kg] | MRT [2] [h] | EC50 [3] [µM] | bioavailability [4] [%] | EC50 [5] [µM] | further results
7 | Cc1nc(-c2ccc(C(F)(F)F)cc2)sc1COc1ccc([C@H](CC(=O)O)c2ncnn2C)cc1 | 1.5 | 3.6 | 0.065 | – | – | –
8 | Cc1nc(-c2ccc(C(F)(F)F)cc2)sc1COc1ccc([C@H](CC(=O)O)c2ccon2)cc1 | 0.68 | – | 0.036 | 77 | 0.0036 | inhibition (INH) [6]: Not Active; Cp(f) [7]: 0.008 µM; bioavailability [8]: 100%; concentration at 4 h [9]: 2 µM; EC50 [10]: 0.055 µM; bioavailability [11]: 65%; half-life [12]: 5.3 h; half-life [13]: 5.6 h; Kp at 3 h [14]: 0.02; inhibition (INH) [15]: Not Active; Vd [16]: 0.35 L/kg; inhibition [17]: Active; inhibition in vivo at 10 mg/kg [18]: 19%; Activity [19]: Not Active; half-life [20]: 14 h; Vd [21]: 0.6 L/kg
9 | Cc1nc(-c2ccc(C(F)(F)F)cc2)sc1COc1ccc([C@H](CC(=O)O)c2ncco2)cc1 | – | – | 0.069 | – | – | –
10 | Cc1cc(Cl)ccc1-c1cccc(COc2ccc([C@H](CC(=O)O)c3ncnn3C)cc2)c1 | 3.5 | 2.5 | 0.033 | 18 | 0.011 | –
11 | Cc1cc(Cl)ccc1-c1cccc(COc2ccc([C@H](CC(=O)O)c3nnnn3C)cc2)c1 | 14.3 | 5.2 | 0.012 | 53 | 0.0013 | –
